System: 596521-263-R-J1-PDC complex spheroids, viability % of control
Test: Anticancer human tumor 596521-263-R-J1-PDC patient-derived soft tissue sarcoma cell line growth inhibition [GQUAD]
Settings: for IC50: curve of first compound; for viability, T/C: stronger effect = lower value
Excerpt: DNA G-quadruplex Stabilizer Agents in Combinations in Complex Spheroids
A high-throughput screen of multi-cell type tumor spheroids was designed to identify active combinations of DNA G-quadruplex stabilizer agents and targeted small molecules. Complex spheroids include a stromal component modeled by human endothelial cells (HUVEC) and fibroblasts modeled by human mesenchymal stem cells (MSCs). The concentration ranges selected for each drug and investigational agent were based upon clinically achievable concentrations if the clinical Cmax of the agent was known.
Compounds. The drugs and investigational agents: pidnarulex (CX-5461; NSC782164), APTO-253 (NSC789042), BRACO-19 (NSC847499), peposertib (NSC802822), ceralasertib (NSC780249), elimusertib (NSC800525), camonsertib (NSC841442), AZD-1390 (NSC803789), olaparib (NSC753686), talazoparib (NSC767125), ART-558 (NSC835418), sotorasib (NSC818433), MRTX-1133 (NSC836407), SN-38 (NSC673596), topotecan (NSC609699), etoposide (NSC141540), doxorubicin (NSC123127), gemcitabine (NSC613327), 5-fluorouracil (NSC19893), paclitaxel (NSC125973), vemurafenib (NSC761431), panobinostat (NSC761190), R-306465 (JNJ-16241199; NSC773264), adavosertib (NSC754352), TP-3654 (NSC805149), carboplatin (NSC241240), KSQ-4279 (NSC840948), and staurosporine (NSC755774) were obtained from the National Cancer Institute (NCI) Developmental Therapeutics Program Chemical Repository (34). The FDA-approved anticancer drug set is available from the NCI Developmental Therapeutics Program. […] The stock solutions were prepared in dimethyl sulfoxide (DMSO, Sigma-Aldrich, St. Louis, MO, cat. D2650) at 800-fold the tested concentration and stored at -70 degrees C prior to their use. All drugs and investigational agents were tested over a range starting from a high concentration at or near the clinical Cmax and decreasing in half-log increments. If the clinical Cmax for an agent had not been determined, the highest concentration tested was 10 microM.
2.3 Cell Culture. All cells were maintained in an incubator at 37 degrees C and 5% CO2 with 95% humidity. The PDC lines were cultured according to standard operating procedures established by the NCI PDMR. All PDCs were thawed and cultured in Matrigel-coated flasks prepared with a working solution of 1X Ham's F-12 nutrient mix, without supplementation (Invitrogen, cat. 11765054), 100 U/mL penicillin-streptomycin (Invitrogen, cat. 15140122), and 2.5% Matrigel (Corning Inc., cat. 354248) for the first three passages. The 857933-349-R-J2-PDC line was cultured in 6C/Colon 1B media, which includes advanced DMEM/F-12 (Thermo Fisher Scientific, cat. 12634028), 10 mM HEPES (Thermo Fisher Scientific, cat. 15630080), 1X GlutaMAX supplement (Thermo Fisher Scientific, cat. 35050061), 0.1 mg/mL primocin (InvivoGen, cat. ant-pm-2), 10% defined fetal bovine serum, heat inactivated (HyClone Laboratories Inc., cat. SH30070.03HI), 50% L-WRN conditioned media (ATCC, cat. CRL-3276), 1.25 mM N-Acetyl-L-cysteine (Sigma-Aldrich, cat. A9165), 10 mM nicotinamide (Sigma-Aldrich, cat. N0636), 1X B-27 supplement (Thermo Fisher Scientific, cat. 17504044), 1X N-2 supplement (Thermo Fisher Scientific, cat. 17502048), 10 microM Y-27632 dihydrochloride (Tocris Bioscience, cat. 1254), and 50 ng/mL human EGF recombinant protein (Thermo Fisher Scientific, cat. PHG0311). The 485176-168-R4-J1-PDC line was cultured in Panc media, which includes all 6C/Colon 1B media components plus 100 ng/mL human FGF-10 (Thermo Fisher Scientific, cat. 100-26), 500 nM SB-431542 (Selleckchem, cat. S1067), and gastrin (Tocris, cat. 3006).
[…]

[1] = second compound 0.0316 µM, first compound 0.0316 µM
[2] = second compound 0.0316 µM, first compound 0.1 µM
[3] = second compound 0.0316 µM, first compound 0.316 µM
[4] = second compound 0.0316 µM, first compound 1 µM
[5] = second compound 0.0316 µM, first compound 3.16 µM
[6] = second compound 0.0316 µM, first compound 10 µM
[7] = second compound 0.1 µM, first compound 0.0316 µM
[8] = second compound 0.1 µM, first compound 0.1 µM
[9] = second compound 0.1 µM, first compound 0.316 µM
[10] = second compound 0.1 µM, first compound 1 µM
[11] = second compound 0.1 µM, first compound 3.16 µM
[12] = second compound 0.1 µM, first compound 10 µM
[13] = second compound 0.316 µM, first compound 0.0316 µM
[14] = second compound 0.316 µM, first compound 0.1 µM
[15] = second compound 0.316 µM, first compound 0.316 µM
[16] = second compound 0.316 µM, first compound 1 µM
[17] = second compound 0.316 µM, first compound 3.16 µM
[18] = second compound 0.316 µM, first compound 10 µM
[19] = second compound 1 µM, first compound 0.0316 µM
[20] = second compound 1 µM, first compound 0.1 µM
[21] = second compound 1 µM, first compound 0.316 µM
[22] = second compound 1 µM, first compound 1 µM
[23] = second compound 1 µM, first compound 3.16 µM
[24] = second compound 1 µM, first compound 10 µM
[25] = second compound 3.16 µM, first compound 0.0316 µM
[26] = second compound 3.16 µM, first compound 0.1 µM
[27] = second compound 3.16 µM, first compound 0.316 µM
[28] = second compound 3.16 µM, first compound 1 µM
[29] = second compound 3.16 µM, first compound 3.16 µM
[30] = second compound 3.16 µM, first compound 10 µM
[31] = second compound 10 µM, first compound 0.0316 µM
[32] = second compound 10 µM, first compound 0.1 µM
[33] = second compound 10 µM, first compound 0.316 µM
[34] = second compound 10 µM, first compound 1 µM
[35] = second compound 10 µM, first compound 3.16 µM
[36] = second compound 10 µM, first compound 10 µM
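Note: spheroids exposed to drugs for 7 days before viability reading.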

Compound: CC1COCCN1c1cc(-c2ccnn2C)c2ccnc(-c3ccn[nH]3)c2n1 (centres undefined) + Cc1[nH]c2ccc(F)cc2c1-c1nc2c3cccnc3c3ncccc3c2[nH]1
- IC50 (second compound 0.0316 µM): 0.395 µM
- IC50 (second compound 0.1 µM): 0.51 µM
- IC50 (second compound 0.316 µM): 0.317 µM
- IC50 (second compound 1 µM): 0.553 µM
- IC50 (second compound 3.16 µM): 0.602 µM
- IC50 (second compound 10 µM): 0.289 µM
- viability, T/C [1]: 84.3%
- viability, T/C [2]: 61.8%
- viability, T/C [3]: 55.6%
- viability, T/C [4]: 40.1%
- viability, T/C [5]: 32.5%
- viability, T/C [6]: 26%
- viability, T/C [7]: 81.3%
- viability, T/C [8]: 69.5%
- viability, T/C [9]: 52%
- viability, T/C [10]: 41.8%
- viability, T/C [11]: 37.9%
- viability, T/C [12]: 23.2%
- viability, T/C [13]: 75.9%
- viability, T/C [14]: 57.2%
- viability, T/C [15]: 50%
- viability, T/C [16]: 43.2%
- viability, T/C [17]: 31.8%
- viability, T/C [18]: 25.3%
- viability, T/C [19]: 71%
- viability, T/C [20]: 62.5%
- viability, T/C [21]: 57.1%
- viability, T/C [22]: 43.5%
- viability, T/C [23]: 34.3%
- viability, T/C [24]: 26%
- viability, T/C [25]: 67.3%
- viability, T/C [26]: 62.4%
- viability, T/C [27]: 53.2%
- viability, T/C [28]: 47.8%
- viability, T/C [29]: 36.3%
- viability, T/C [30]: 26.1%
- viability, T/C [31]: 64.5%
- viability, T/C [32]: 57%
- viability, T/C [33]: 49.6%
- viability, T/C [34]: 40.9%
- viability, T/C [35]: 32.9%
- viability, T/C [36]: 25.4%

Compound: CC1COCCN1c1cc(C2(S(C)(=N)=O)CC2)nc(-c2ccnc3[nH]ccc23)n1 (centres undefined) + Cc1[nH]c2ccc(F)cc2c1-c1nc2c3cccnc3c3ncccc3c2[nH]1
- IC50 (second compound 0.0316 µM): > 10 µM
- IC50 (second compound 0.1 µM): 8.24 µM
- IC50 (second compound 0.316 µM): 7.65 µM
- IC50 (second compound 1 µM): > 10 µM
- IC50 (second compound 3.16 µM): 6.02 µM
- IC50 (second compound 10 µM): 4.76 µM
- viability, T/C [1]: 94.5%
- viability, T/C [2]: 92.9%
- viability, T/C [3]: 92.1%
- viability, T/C [4]: 79.2%
- viability, T/C [5]: 64.5%
- viability, T/C [6]: 50.9%
- viability, T/C [7]: 104%
- viability, T/C [8]: 95.5%
- viability, T/C [9]: 90.8%
- viability, T/C [10]: 79.6%
- viability, T/C [11]: 63.1%
- viability, T/C [12]: 47.2%
- viability, T/C [13]: 100%
- viability, T/C [14]: 111%
- viability, T/C [15]: 98.5%
- viability, T/C [16]: 84.5%
- viability, T/C [17]: 62.6%
- viability, T/C [18]: 46.1%
- viability, T/C [19]: 94.5%
- viability, T/C [20]: 92.8%
- viability, T/C [21]: 85.5%
- viability, T/C [22]: 86.1%
- viability, T/C [23]: 67.9%
- viability, T/C [24]: 51.4%
- viability, T/C [25]: 80.3%
- viability, T/C [26]: 89%
- viability, T/C [27]: 87.2%
- viability, T/C [28]: 65.6%
- viability, T/C [29]: 62.6%
- viability, T/C [30]: 42.1%
- viability, T/C [31]: 80.5%
- viability, T/C [32]: 72.6%
- viability, T/C [33]: 81%
- viability, T/C [34]: 61.7%
- viability, T/C [35]: 55.3%
- viability, T/C [36]: 43.9%
